Among the test systems are SN12K1 renal; P388 leukemia; P388/ADR leukemia.
Assay in all cases: NCI tumour cell line growth inhibition, 48 h

Structures are written as SMILES. Converted amounts (≈) assume the structure as drawn.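 Where inhibition never reached the appropriate level, the endpoint shown equals the highest concentration tested. Otherwise, values were interpolated linearly from a five-concentration, 48-hour dose response in 96-well plates. GI50 = concentration required for 50% inhibition of growth. At the TGI there is no net growth.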

`COC(C(=O)C(O)C(C)O)C1Cc2cc3cc(OC4CC(OC5CC(O)C(O)C(C)O5)C(O)C(C)O4)c(C)c(O)c3c(O)c2C(=O)C1OC1CC(OC2CC(O)C(OC3CC(C)(O)C(O)C(C)O3)C(C)O2)C(O)C(C)O1` (configuration not stated): the GI50 was 0.0304 ng/mL (≈ 0.028 nM) in the assay on SN12K1 renal, 0.056 ng/mL (≈ 0.0516 nM) in the assay on P388 leukemia and 1.32 ng/mL (≈ 1.22 nM) in the assay with P388/ADR leukemia. Moreover, the TGI in the assay with SN12K1 renal was 150 ng/mL; with P388 leukemia, 0.798 ng/mL (≈ 0.735 nM); with P388/ADR leukemia it was 20.4 ng/mL (≈ 18.8 nM).
In turn, `C/C(=N\NC(=S)N1CCN(C2CCCCCC2)CC1)c1ccccn1` had a TGI with SN12K1 renal of 1.56 µM.

The values are drawn from PubChem BioAssay (NCI).
